Values quoted from earlier work as cited in patent publication US8440213B2, “Pesticides formulations” (priority 2003, dated 2013).
In brackets after ≈: the same amount, converted by molar mass.

Conditions: in water, at 20° C.

| SMILES | Solubility |
| --- | --- |
| CCOc1ccc(C(C)(C)COCc2cccc(Oc3ccccc3)c2)cc1 [Etofenprox, 2-(4-ethoxyphenyl)-2-methylpropyl 3-phenoxybenzyl ether] | <0.001 µg/mL |
| COc1nn(CSP(=S)(OC)OC)c(=O)s1 [Methidathion] | 200 µg/mL (≈ 662 µM) |
| CCOP(=S)(OCC)Oc1nc(Cl)c(Cl)cc1Cl [Chlorpyriphos] | 1.4 µg/mL (≈ 3.99 µM) |
| CCCN(CCC)c1c([N+](=O)[O-])cc(C(F)(F)F)cc1[N+](=O)[O-] [Trifluralin, α,α,α,-trifluoro-2,6-dinitro-N,N-dipropyl-p-toluidine] | 0.4 µg/mL (≈ 1.19 µM) |
